Measured values as given in patent US9192656B2, “Methods and compositions for the treatment of cancer” (QUINTESSENCE BIOSCIENCES, INC., priority 2006, dated 2015).

Tests used:
[1] = test system: human prostate cancer cell line (DU145); test: In vivo inhibition of tumor growth, DU145 xenograft; set-up: species or system human tumor cells in nude mice; details: for Starting volume: at start
Experimental: Cells from a non-small cell lung cancer cell line (A549) were grown in nine T175 flasks in F12K media and 10% fetal calf serum until the cells were confluent. 4.5×10^6 cells (in 100 microliters) were injected into the right rear flank of 4-5 week old male homozygous (nu/nu) nude mice (Harlan, Madison Wis.). Tumors were allowed to grow to an average size of ≧75 mm^3 before treatments were initiated. Animals of each tumor type, with the properly sized tumors, were divided into treatment groups, including one set of animals treated weekly with vehicle (phosphate buffered saline, PBS). The vehicle and the test agents were all administered by intraperitoneal injection. Each animal was weighed twice a week during treatment. The tumors were measured twice weekly using calipers. Tumor volume (mm^3) was determined by using the formula for an ellipsoid sphere: […]
The percent tumor growth inhibition (% TGI) is calculated by: […]
This xenograft model was set up as in the previous example except that a human prostate cancer cell line (DU145) was used. The efficacy of wild type human RNase 1 is shown relative to docetaxel. The RNase 1 was administered at 75 mg per kg of body weight of the animal (75 mg/kg 1×wk), while the docetaxel was used at 8 mg/kg once a week. The value of n represents the number of animals in the specific treatment arm of the experiment.
The xenograft model of this example was set up as in the previous example except that a human prostate cancer cell line (DU145) was used. The efficacy of wild type human RNase 1 is shown. The RNase 1 was administered at 75 mg per kg of body weight of the animal once per week (75 mg/kg 1×wk). The value of n represents the number of animals in the specific treatment arm of the experiment.
The xenograft model of this example was set up as in the previous example. The efficacy of wild type human RNase 1 is shown. The RNase 1 was administered at three different doses: (1) 15 mg per kg of body weight of the animal once per week (15 mg/kg 1×wk), (2) 75 mg/kg 1×wk, or (3) 300 mg/kg 1×wk. The value of n represents the number of animals in the specific treatment arm of the experiment.

[2] = Clinical chemistry and complete blood count plus platelets (DU145 xenograft mice); type: in vivo
Experimental: Clinical chemistry and a complete blood count (CBC) plus platelets were performed on whole blood and serum samples collected from the mice 24 hours after the last treatment of the prostate xenograft model above. […] Creatinine was also tested and found not to differ. The levels of the liver enzymes, gamma glutamyl transferase (GGT) and alanine transaminase (ALT) in all treatment groups were similar (GGT data not shown.). The values were determined for the various treatment groups of the prostate (DU145) xenograft study for clinical chemistry (A., B.), complete blood count (C., D.), and platelets (F.). Abbreviations: TCO2, amount of bicarbonate ion (HCO3^−); Anion Gap, [Na+K]—[Cl+HCO3]; ALT, alanine aminotransferase; WBC, white blood count; RBC, red blood count; HGB, hemoglobin; RBC HGB, (CHCM×RBC×MCV)/1000); MCH, mean corpuscular hemoglobin; MCHC, mean corpuscular hemoglobin concentration; RDW, red cell distribution width; MPV, mean platelet volume; HCT, hematocrit; MCV, mean corpuscular volume.

[3] = Example 4, Table 8, RNase 1 75 mg/kg 1×wk, docetaxel 8 mg/kg once a week
[4] = Example 8, Table 12, 75 mg/kg 1×wk
[5] = Example 9, Table 13, set up as in the previous example, 15 mg/kg 1×wk
[6] = Example 9, Table 13, set up as in the previous example, 75 mg/kg 1×wk
[7] = Example 9, Table 13, set up as in the previous example, 300 mg/kg 1×wk

## Wild type human RNase 1: wild type human ribonuclease 1 (human pancreatic RNase), SEQ ID NO:1
[1]; [3]
  % TGI: 80%
  (Final − start): 478 mm^3
  (Final − start)/Control: 0.20
  Final volume: 539 mm^3
  Starting volume: 61 mm^3
[1]; [4]
  % TGI: 77%
  (Final − start): 607 mm^3
  (Final − start)/Control: 0.23
  Final volume: 669 mm^3
  Starting volume: 62 mm^3
[1]; [5]
  % TGI: 0%
  (Final − start): 1136 mm^3
  (Final − start)/Control: 1
  Final volume: 1246 mm^3
  Starting volume: 110 mm^3
[1]; [6]
  % TGI: 61%
  (Final − start): 445 mm^3
  (Final − start)/Control: 0.39
  Final volume: 559 mm^3
  Starting volume: 114 mm^3
[1]; [7]
  % TGI: 43%
  (Final − start): 652 mm^3
  (Final − start)/Control: 0.57
  Final volume: 766 mm^3
  Starting volume: 114 mm^3
[2]; 24 hours after the last treatment
  Creatinine versus vehicle: not to differ
[2]; whole blood and serum 24 hours after the last treatment, Mann-Whitney U test
  Clinical chemistry and complete blood count plus platelets, all tests, versus vehicle: not to be significantly different
